Test results published in patent US10597542B2, “Methods of applying active components” (HONEYWELL INTERNATIONAL INC., priority 2011, dated 2020).

Assay: Solubility of material samples covered with tr-1233zd or cis-1233zd in vials (Examples 8-13)
Details: for Amount of heparin dissolved: remained clear overnight
Source text: Test samples of commercial acrylic plastic sheet cut into ¼″×2″ piece were placed into 20 cc vials with septum screw cap. Solvents (tr-1233zd & cis-1233zd) were slowly added by a syringe to cover the entire plastic sample inside the vial. The purpose was to observe if any degradation happens to the plastic.
Test samples of commercial high impact styrene plastic sheet cut into ¼″×2″ piece were placed into 20 cc vials with septum screw cap. Solvents (tr-1233zd & cis-1233zd) were slowly added by a syringe to cover the entire plastic sample inside the vial. The purpose was to observe if any degradation happens to the plastic.
Test samples of commercial acrylonitrile-butadiene-styrene (ABS) sheet cut into ¼″×2″ piece were placed into 20 cc vials with septum screw cap. Solvents (tr-1233zd & cis-1233zd) were slowly added by a syringe to cover the entire plastic sample inside the vial.
The experiment in Example 8 is repeated with commercial polycarbonate material.
The experiment of Example 8 was repeated with commercial Dow Polaroid™ Au-608-B acrylic material. This material is used in various coatings.
The experiment of Example 8 was repeated with blood anti-coagulant material Heparin, which is used as a coating in medical devices.

Question: What does the source list for Heparin?
Answer: Solubility / effect of solvent on the material: None of the solvents could dissolve the material; Amount of heparin dissolved (cis-1233zd with 2 wt % methanol): 1.19 wt %; Amount of heparin dissolved (tr-1233zd with 2 wt % methanol): 0.794 wt %
